# Results published in BindingDB's records for doi:10.1021/acs.jmedchem.7b00359 (AstraZeneca, 2017).
# Target: T1, Zinc finger and BTB domain-containing protein 16 (Homo sapiens, UniProt Q05516)
# T1 sequence (Q05516 whole entry): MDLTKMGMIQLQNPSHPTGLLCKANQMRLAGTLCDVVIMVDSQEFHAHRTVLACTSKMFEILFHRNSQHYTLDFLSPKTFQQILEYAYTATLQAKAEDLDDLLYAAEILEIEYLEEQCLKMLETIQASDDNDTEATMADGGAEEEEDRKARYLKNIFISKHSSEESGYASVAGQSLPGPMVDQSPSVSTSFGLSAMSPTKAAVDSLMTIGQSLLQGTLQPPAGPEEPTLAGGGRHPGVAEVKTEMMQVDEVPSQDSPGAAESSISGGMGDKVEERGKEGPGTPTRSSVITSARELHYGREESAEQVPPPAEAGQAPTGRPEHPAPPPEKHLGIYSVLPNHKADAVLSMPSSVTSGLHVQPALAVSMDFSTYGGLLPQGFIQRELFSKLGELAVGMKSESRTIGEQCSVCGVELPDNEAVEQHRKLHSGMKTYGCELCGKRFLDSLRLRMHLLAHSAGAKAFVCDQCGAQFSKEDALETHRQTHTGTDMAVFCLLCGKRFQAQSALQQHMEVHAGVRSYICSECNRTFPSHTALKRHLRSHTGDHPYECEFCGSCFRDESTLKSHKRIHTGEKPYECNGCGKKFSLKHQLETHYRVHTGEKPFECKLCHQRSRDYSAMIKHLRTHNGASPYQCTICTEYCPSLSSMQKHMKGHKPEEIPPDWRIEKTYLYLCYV
# Test: ChEBML_1665992
# Description: (§1) Inhibition of GAL4 DNA binding domain fused PLZF BTB domain (unknown origin) expressed in HEK 293T/17 cells after 24 hrs by Bright-Glo luciferase cell reporter assay
row,SMILES,IC50 [µM]
1,N#Cc1cnn2c3cc(nc12)N1C[C@H](C[C@H]1CO)OC/C=C/COc1cc(cc2c1NC(=O)CC2)N3,> 30

# Target: T1, Zinc finger and BTB domain-containing protein 16
# Test: as §1
row,SMILES,IC50 [µM]
1,O=C1CCc2cc3cc(c2N1Cc1ccccc1)OC/C=C/CO[C@H]1C[C@@H](CO)N(C1)c1cc(n2ncc(Cl)c2n1)N3,> 30
2,CN1C(=O)CCc2cc3cc(c21)OC/C=C/CO[C@H]1C[C@@H](CO)N(C1)c1cc(n2ncc(Cl)c2n1)N3,> 30
3,O=C1CCc2cc3cc(c2N1CC1CC1)OC/C=C/CO[C@H]1C[C@@H](CO)N(C1)c1cc(n2ncc(Cl)c2n1)N3,> 30
4,O=C(O)C[C@@H]1C[C@H]2CN1c1cc(n3ncc(Cl)c3n1)Nc1cc3c(c(c1)OC/C=C/CO2)N(CC1CC(F)(F)C1)C(=O)CC3,> 30
5,O=C1CCc2cc3cc(c2N1CCCN1CCOCC1)OC/C=C/CO[C@H]1C[C@@H](CO)N(C1)c1cc(n2ncc(Cl)c2n1)N3,> 30
6,COc1cccc(CN2C(=O)CCc3cc4cc(c32)OC/C=C/CO[C@H]2C[C@@H](CO)N(C2)c2cc(n3ncc(C#N)c3n2)N4)c1,> 30
7,Cc1ccccc1CN1C(=O)CCc2cc3cc(c21)OC/C=C/CO[C@H]1C[C@@H](CO)N(C1)c1cc(n2ncc(Cl)c2n1)N3,> 30
8,Cc1ccc(CN2C(=O)CCc3cc4cc(c32)OC/C=C/CO[C@H]2C[C@@H](CO)N(C2)c2cc(n3ncc(Cl)c3n2)N4)cc1,> 30
9,O=C1CCc2cc3cc(c2N1Cc1ccncc1)OC/C=C/CO[C@H]1C[C@@H](CO)N(C1)c1cc(n2ncc(Cl)c2n1)N3,> 30
10,O=C1CCc2cc3cc(c2N1CC1CC(F)(F)C1)OC/C=C/CO[C@H]1C[C@@H](CO)N(C1)c1cc(n2ncc(Cl)c2n1)N3,> 30
11,COc1cccc(CN2C(=O)CCc3cc4cc(c32)OC/C=C/CO[C@H]2C[C@@H](CO)N(C2)c2cc(n3ncc(Cl)c3n2)N4)c1,> 30
12,O=C1CCc2cc3cc(c2N1)OCCCCO[C@H]1C[C@@H](CO)N(C1)c1cc(n2nccc2n1)N3,> 30
13,N#Cc1cnn2c3cc(nc12)N1C[C@H](C[C@H]1CO)OCCCCOc1cc(cc2c1NC(=O)CC2)N3,> 30
14,N#Cc1cnn2c3cc(nc12)N1CC[C@@H](C1)OCCCCOc1cc(cc2c1NC(=O)CC2)N3,> 30
15,O=C1CCc2cc3cc(c2N1)OCCCCO[C@H]1C[C@@H](CO)N(C1)c1cc(n2ncc(Cl)c2n1)N3,> 30
16,O=C1CCc2cc3cc(c2N1)OC/C=C/CO[C@H]1C[C@@H](CO)N(C1)c1cc(n2ncc(Cl)c2n1)N3,> 30
